Laboratory results reported in ChEMBL document CHEMBL2021775, “Discovery of flavonoid derivatives as anti-HCV agents via pharmacophore search combining molecular docking strategy” (Eur J Med Chem, 2012).
pEC50, pIC50: −log10 of the molar value. The source made the active and inactive calls. No cut-off for these calls is given here.

Tests used:
Hepatitis C virus [1] = assay: Inhibition of HCV 1b NS5B polymerase; design: species or system Hepatitis C virus subtype 1b
[2] = Cytotoxicity against human Huh7.5.1 cells by MTT assay; type: cell-based, Huh-7
Hepatitis C virus [3] = assay: Antiviral activity against HCV genotype 2a […] in Human Huh7.5.1 replicon cells assessed as suppression of viral replication after 72 hrs by luciferase reporter gene assay; type: functional, organism-based, Hepacivirus hominis; conditions: Huh-7, 72 h
Hepatitis C virus [4] = assay: Antiviral activity against HCV JFH-1 J399EM infected in Human Huh7.5.1 cells assessed as suppression of viral replication after 72 hrs by EGFP assay; type: functional, organism-based, Hepacivirus hominis; conditions: Huh-7, 72 h
Hepatitis C virus [5] = assay: Antiviral activity against HCV JFH-1 J399EM infected in Human Huh7.5.1 cells assessed as suppression of viral replication at 50 uM after 72 hrs by EGFP assay; type: functional, Hepacivirus hominis; conditions: for inhibition at 50 µM: Huh-7, 72 h; for inhibition: Hepacivirus hominis, Huh-7
Hepatitis C virus [6] = assay: Inhibition of HCV 1b NS5B polymerase at 100 uM; design: species or system Hepatitis C virus subtype 1b

O=c1cc(-c2ccc(O)c(O)c2)oc2cc(O)cc(O)c12 [LUTEOLIN]
pIC50 (Hepatitis C virus [1]): 5.95
CC50 [2]: > 50 µM
pEC50 (Hepatitis C virus [3]): 5.18
pEC50 (Hepatitis C virus [4]): 5.33

COc1c(O)cc2oc(-c3ccc(O)c(O)c3)cc(=O)c2c1O [EUPAFOLIN]
CC50 [2]: > 50 µM
pEC50 (Hepatitis C virus [4]): 4.48

O=c1c(O)c(-c2ccc(O)c(O)c2)oc2cc(O)ccc12 [FISETIN]
CC50 [2]: > 50 µM
inhibition at 50 µM (Hepatitis C virus [5]): 26.4%

COc1cc(-c2oc3cc(O)cc(O)c3c(=O)c2O)cc(OC)c1O [SYRINGETIN]
CC50 [2]: > 50 µM
pEC50 (Hepatitis C virus [4]): 4.81

O=c1c(O)c(-c2ccccc2)oc2cc(O)cc(O)c12 [GALANGIN]
CC50 [2]: > 50 µM
inhibition at 50 µM (Hepatitis C virus [5]): 46.9%

O=c1c(-c2ccc(O)cc2)coc2cc(O)cc(O)c12 [GENISTEIN]
CC50 [2]: > 50 µM
pEC50 (Hepatitis C virus [4]): 4.84

COc1c(O)cc2oc(-c3ccc(O)cc3)cc(=O)c2c1O [HISPIDULIN]
CC50 [2]: > 50 µM
pEC50 (Hepatitis C virus [4]): 4.44

O=c1c(O)c(-c2ccc(O)cc2)oc2cc(O)cc(O)c12 [KAEMPFEROL]
CC50 [2]: > 50 µM
inhibition at 50 µM (Hepatitis C virus [5]): 51.9%

COc1ccc(-c2oc3cc(O)cc(O)c3c(=O)c2O)cc1 [KAEMPFERIDE]
CC50 [2]: > 50 µM
inhibition at 50 µM (Hepatitis C virus [5]): 27.6%

O=c1c(O)c(-c2ccc(O)c(O)c2)oc2cc(O)cc(O)c12 [QUERCETIN]
CC50 [2]: > 50 µM
pEC50 (Hepatitis C virus [4]): 4.70

O=c1cc(-c2cc(O)c(O)c(O)c2)oc2cc(O)cc(O)c12 [TRICETIN]
CC50 [2]: > 50 µM
pEC50 (Hepatitis C virus [4]): 4.49

O=C1c2cccc(O)c2C(=O)c2c(O)cc(CO)cc21 [ALOE-EMODIN]
CC50 [2]: > 50 µM
pEC50 (Hepatitis C virus [4]): 4.68

O=c1c(O)c(-c2ccc(O)cc2)oc2cccc(O)c12
CC50 [2]: > 50 µM
pEC50 (Hepatitis C virus [4]): 4.90

O=c1cc(-c2cc(O)c(O)c(O)c2)oc2cc(O)ccc12
CC50 [2]: > 50 µM
pEC50 (Hepatitis C virus [4]): 4.41

O=c1c(O)c(-c2cc(O)c(O)cc2O)oc2ccc(O)cc12
CC50 [2]: > 50 µM
inhibition at 50 µM (Hepatitis C virus [5]): 31.1%

O=c1cc(-c2ccc(O)c(O)c2)oc2c(O)c(O)ccc12
CC50 [2]: > 50 µM
pEC50 (Hepatitis C virus [4]): 4.63

O=c1c(O)c(-c2ccc(O)cc2O)oc2cc(O)cc(O)c12 [MORIN]
CC50 [2]: > 50 µM
inhibition at 50 µM (Hepatitis C virus [5]): 31.1%

O=c1cc(-c2ccc(O)cc2)oc2cc(O)cc(O)c12 [APIGENIN]
CC50 [2]: > 50 µM
pEC50 (Hepatitis C virus [3]): 4.92
pEC50 (Hepatitis C virus [4]): 5.10

O=c1cc(-c2ccccc2)oc2cc(O)cc(O)c12 [CHRYSIN]
CC50 [2]: > 50 µM
inhibition at 100 µM (Hepatitis C virus [6]): 30%
inhibition at 50 µM (Hepatitis C virus [5]): 51%

O=c1cc(-c2ccc(O)c(O)c2)oc2cc(O[C@@H]3O[C@H](CO)[C@@H](O)[C@H](O)[C@H]3O)cc(O)c12 [GALUTEOLIN]
CC50 [2]: > 50 µM
inhibition (Hepatitis C virus [5]): inactive

O=c1c(O)c(-c2ccc(O)c(O)c2)oc2c(O)c(O)cc(O)c12 [GOSSYPETIN]
CC50 [2]: > 50 µM
pEC50 (Hepatitis C virus [4]): 4.33

O=c1cc(-c2ccccc2)oc2cc(O)c(O)c(O)c12 [BAICALEIN]
CC50 [2]: > 50 µM
pEC50 (Hepatitis C virus [4]): 4.47

O=C(/C=C/c1ccc(O)cc1)c1ccc(O)cc1O [ISOLIQUIRITIGENIN]
CC50 [2]: > 50 µM
pEC50 (Hepatitis C virus [4]): 4.44

O=c1cc(-c2ccc(O)c(-c3c(O)cc(O)c4c(=O)cc(-c5ccc(O)cc5)oc34)c2)oc2cc(O)cc(O)c12 [AMENTOFLAVONE]
CC50 [2]: > 50 µM
inhibition (Hepatitis C virus [5]): inactive

O=c1c(O[C@H]2O[C@@H](CO)[C@@H](O)[C@@H](O)[C@@H]2O)c(-c2ccc(O)c(O)c2)oc2cc(O)cc(O)c12
CC50 [2]: > 50 µM
inhibition (Hepatitis C virus [5]): inactive

O=c1c(O)c(-c2cccc(O)c2O)oc2ccc(O)cc12
CC50 [2]: > 50 µM
inhibition (Hepatitis C virus [5]): inactive

COc1cc(-c2oc3cc(O)cc(O)c3c(=O)c2O)ccc1O [ISORHAMNETIN]
CC50 [2]: > 50 µM
inhibition at 50 µM (Hepatitis C virus [5]): 47.3%

O=c1cc(-c2ccccc2O)oc2c(O)c(O)ccc12
CC50 [2]: > 50 µM
inhibition at 50 µM (Hepatitis C virus [5]): 51.9%

O=c1cc(-c2ccc(O)c(O)c2)oc2cc(O)c([C@@H]3O[C@H](CO)[C@@H](O)[C@H](O)[C@H]3O)c(O)c12 [ISOORIENTIN]
CC50 [2]: > 50 µM
inhibition (Hepatitis C virus [5]): inactive

O=c1c(O)c(-c2cc(O)c(O)c(O)c2)oc2cc(O)cc(O)c12 [MYRICETIN]
CC50 [2]: > 50 µM
pEC50 (Hepatitis C virus [4]): 4.33

O=c1c(O)c(-c2ccccc2)oc2cccc(O)c12
CC50 [2]: > 50 µM
inhibition at 50 µM (Hepatitis C virus [5]): 83.7%
